Values quoted from earlier work, collected in patent publication US20250283018A1, “TOILET RIM BLOCKS WITH SCENT CHANGE” (SYMRISE AG, priority 2021, published 2025).
Like-named read-outs stand apart in the source and are kept apart here.

Assays:
[1] = not given; remark: listed apart in the source
[2] = Table 3, components of POWER PLATIN

## CCCCCCCCCC(C)C=O (centres unmarked) [ALDEHYD C12 MNA]
[2]
  logP: 4.67
[1]; [2]
  Bp. [° C.]: 171 °C

## CC(=O)OC(C)c1ccccc1 (centres unmarked) [STYROLYLACETAT]
[1]; Table 1, components of MARINA
  Bp. [° C.]: 214 °C
[1]; Table 2, components of PEACH
  Bp. [° C.]: 214 °C

## CC/C=C/CCOC(=O)c1ccccc1O [HEXENYLSALICYLAT CIS-3]
List of selected fragrances
  logP: 4.5
[1]; list of selected fragrances
  Bp. [° C.]: 301 °C

## C=CCc1ccc(O)c(OC)c1 [EUGENOL]
[1]; [2]
  Bp. [° C.]: 253.2 °C
[1]; list of selected fragrances
  Bp. [° C.]: 253.2 °C

## CCCCCCCCC1CCC(=O)O1 (centres unmarked) [DODECALACTON GAMMA]
Table 2, components of PEACH
  logP: 3.55
[1]; Table 2, components of PEACH
  Bp. [° C.]: 291 °C

## COc1ccc(C=O)cc1 [ANISALDEHYD REIN]
[1]; [2]
  Bp. [° C.]: 248 °C

## CC(C)=CCCC(C)CCOC(=O)C(C)C (centres unmarked) [CITRONELLYLISOBUTYRAT]
Table 2, components of PEACH
  logP: 5.47
List of selected fragrances
  logP: 5.04
[1]; Table 2, components of PEACH
  Bp. [° C.]: 267 °C
[1]; list of selected fragrances
  Bp. [° C.]: 267 °C

## CC/C=C\CCO [HEXENOL CIS-3]
[1]; Table 1, components of MARINA
  Bp. [° C.]: 157 °C
[1]; Table 2, components of PEACH
  Bp. [° C.]: 157 °C

## C=CCOC(=O)COC1CCCCC1 [CYCLOGALBANAT]
[1]; Table 1, components of MARINA
  Bp. [° C.]: 256 °C
[1]; [2]
  Bp. [° C.]: 256 °C
[1]; list of selected fragrances
  Bp. [° C.]: 256 °C

## CCCCCCOC(C)=O [HEXYLACETAT]
[1]; Table 1, components of MARINA
  Bp. [° C.]: 169 °C
[1]; Table 2, components of PEACH
  Bp. [° C.]: 169 °C

## O=C1CCCCCCCCCCCCCCO1 [OMEGA PENTADECALACTONE]
List of selected fragrances
  logP: 5.35
[1]; list of selected fragrances
  Bp. [° C.]: 341 °C

## CC12CCC(CC1)C(C)(C)O2 [EUCALYPTOL NAT.]
[1]; Table 1, components of MARINA
  Bp. [° C.]: 176 °C

## CCCCC1CCC(=O)O1 (centres unmarked) [OCTALACTON GAMMA]
[1]; Table 2, components of PEACH
  Bp. [° C.]: 234 °C

## CCCCCCCCCCCCCC=O [TETRADECANAL]
List of selected fragrances
  logP: 2.89
[1]; list of selected fragrances
  Bp. [° C.]: 286 °C

## COC(=O)c1ccccc1N [[…]]
List of selected fragrances
  logP: 2.12
[1]; Table 1, components of MARINA
  Bp. [° C.]: 256 °C
[1]; [2]
  Bp. [° C.]: 256 °C
[1]; list of selected fragrances
  Bp. [° C.]: 256 °C

## CCCC(=O)OCCC(C)C [ISOAMYLBUTYRAT]
Table 2, components of PEACH
  logP: 3.25
[1]; Table 2, components of PEACH
  Bp. [° C.]: 179 °C

## C=CCOC(=O)COCCC(C)C [ALLYLAMYLGLYCOLAT]
[1]; [2]
  Bp. [° C.]: 226 °C

## C[C@@H]1CC[C@H]2C(C)(C)[C@H]3C[C@@]12CC[C@@]3(C)O [CEDROL CRIST. NAT.]
[1]; Table 1, components of MARINA
  Bp. [° C.]: 283 °C
[1]; [2]
  Bp. [° C.]: 283 °C

## 3-METHYLBUTYL-CYCLOHEXANOL
List of selected fragrances
  logP: 4.49
[1]; list of selected fragrances
  Bp. [° C.]: 245 °C

## CCc1occc(=O)c1O [ETHYLMALTOL]
[2]
  logP: 0.3
[1]; [2]
  Bp. [° C.]: 290 °C

## CC(=O)/C=C/C1=C(C)CCCC1(C)C [BETA IONONE]
List of selected fragrances
  logP: 3.77
[1]; Table 1, components of MARINA
  Bp. [° C.]: 259 °C
[1]; list of selected fragrances
  Bp. [° C.]: 259 °C

## CC(C)=CCCC(C)=CCCc1ccncc1
Table 1, components of MARINA
  logP: 5.95
[1]; Table 1, components of MARINA
  Bp. [° C.]: 307 °C

## CC1=CCC(=C(C)C)CC1 [TERPINOLEN DEXTRO]
[2]
  logP: 4.88
[1]; [2]
  Bp. [° C.]: 197 °C

## CCOC(=O)CC(O)(CC(=O)OCC)C(=O)OCC
[1]; Table 2, components of PEACH
  Bp. [° C.]: 294 °C

## Cc1ccc2c(c1)OCC(=O)CO2 [CALONE]
Table 1, components of MARINA
  logP: 2.43
[2]
  logP: 2.43
[1]; Table 1, components of MARINA
  Bp. [° C.]: 289 °C
[1]; [2]
  Bp. [° C.]: 289 °C

## CC(O)COC(C)CO (centres unmarked) [DIPROPYLENGLYCOL]
[1]; Table 1, components of MARINA
  Bp. [° C.]: 231 °C
[1]; Table 2, components of PEACH
  Bp. [° C.]: 231 °C
[1]; [2]
  Bp. [° C.]: 231 °C

## CCC(CC)COC(=O)CC1C=CCC1 (centres unmarked) [(2-CYCLOPENTEN-1-ACETIC ACID-2-ETHYLBUTYL ESTER]
[1]; list of selected fragrances
  Bp. [° C.]: 252 °C

## CC(C=O)Cc1ccc(C(C)C)cc1 (centres unmarked)
[2]
  logP: 3.91
List of selected fragrances
  logP: 3.61
[1]; [2]
  Bp. [° C.]: 262 °C
[1]; list of selected fragrances
  Bp. [° C.]: 262 °C

## CC(=O)c1oc2ccccc2c1C [NEROLIONE]
[1]; Table 2, components of PEACH
  Bp. [° C.]: 272 °C

## CO[C@]1(C)CC[C@@]23C[C@@H]1C(C)(C)[C@@H]2CC[C@H]3C [CEDRAMBER]
[1]; Table 1, components of MARINA
  Bp. [° C.]: 270 °C
[1]; [2]
  Bp. [° C.]: 270 °C

## CCCCCCC1OC(=O)CC1C (centres unmarked) [APRIFLOREN ®]
[1]; Table 2, components of PEACH
  Bp. [° C.]: 274 °C

## CCc1ccc(CC(C)(C)C=O)cc1 [FLORALOZONE]
[2]
  logP: 3.94
[1]; [2]
  Bp. [° C.]: 276.6 °C

## CC(C)=CCCC(C)CCO (centres unmarked) [CITRONELLOL 950]
[1]; [2]
  Bp. [° C.]: 223 °C

## C/C=C/c1ccc(OC)cc1 [ANETHOL SUPRA 21.5 CELSIUS]
[1]; [2]
  Bp. [° C.]: 234 °C

## C=CC(C)(O)CCC=C(C)C (centres unmarked) [LINALOOL]
[2]
  logP: 3.38
[1]; [2]
  Bp. [° C.]: 198 °C

## CCCCCC1CCC(=O)O1 (centres unmarked) [ALDEHYD C18 SOG.]
[1]; Table 2, components of PEACH
  Bp. [° C.]: 250 °C

## CCC(=CCC1CC=C(C)C1(C)C)CO (centres unmarked) [ETHYL TRIMETHYLCYCLOPENTENE BUTENOL]
List of selected fragrances
  logP: 4.63
[1]; list of selected fragrances
  Bp. [° C.]: 276 °C

## CCC(C)=CCCC(C)=CC#N [LEMONILE]
[2]
  logP: 3.96
[1]; [2]
  Bp. [° C.]: 249 °C

## CCCCCC1(C)CCC(C)(C)C1=O (centres unmarked) [VELOUTONE]
Table 2, components of PEACH
  logP: 4.34
[1]; Table 2, components of PEACH
  Bp. [° C.]: 247 °C

## Cc1ccc2c(c1)OC(=O)C2C (centres unmarked) [FURAMINTON/TONKALACTONE ™]
Table 2, components of PEACH
  logP: 1.44
[1]; Table 2, components of PEACH
  Bp. [° C.]: 284 °C

## CC1CC(C)(c2ccccc2)OC(C)O1 (centres unmarked) [FLOROPAL]
Table 1, components of MARINA
  logP: 3.11
[1]; Table 1, components of MARINA
  Bp. [° C.]: 273 °C

## CCCCCC1CCCC(=O)O1 (centres unmarked) [DECALACTON DELTA]
Table 2, components of PEACH
  logP: 2.57
[1]; Table 2, components of PEACH
  Bp. [° C.]: 267 °C

## CO[C@]1(C)CC[C@@]23C[C@@H]1C(C)(C)[C@@H]2CC[C@H]3C [CEDROL METHYL ETHER]
[1]; list of selected fragrances
  Bp. [° C.]: 270 °C

## CC1CCC(C(C)(C)S)C(=O)C1 (centres unmarked) [THIOMENTHANON-8,3]
Table 2, components of PEACH
  logP: 2.78
[1]; Table 2, components of PEACH
  Bp. [° C.]: 271 °C

## CC/C=C\CCOC(=O)OC [LEAFOVERT ®]
[1]; Table 2, components of PEACH
  Bp. [° C.]: 189 °C

## CC12CCC(CC1=O)C2(C)C (stereo not drawn) [KAMPFER DL]
[1]; Table 1, components of MARINA
  Bp. [° C.]: 204 °C

## CC(=O)OC1CCCCC1C(C)(C)C (centres unmarked) [AGRUMEX LC]
[1]; Table 1, components of MARINA
  Bp. [° C.]: 227 °C
[1]; Table 2, components of PEACH
  Bp. [° C.]: 227 °C
[1]; [2]
  Bp. [° C.]: 227 °C

## CSC
[1]; Table 2, components of PEACH
  Bp. [° C.]: 37 °C

## C=CCOC(=O)COc1ccccc1 [ALLYLPHENOXYACETAT]
[1]; Table 2, components of PEACH
  Bp. [° C.]: 266 °C
[1]; list of selected fragrances
  Bp. [° C.]: 266 °C

## CCCCCC(=O)OCC [ETHYLCAPRONAT]
[1]; Table 2, components of PEACH
  Bp. [° C.]: 166 °C

## TERPINEOL REIN
[1]; Table 1, components of MARINA
  Bp. [° C.]: 219.16 °C
[1]; Table 2, components of PEACH
  Bp. [° C.]: 219.16 °C

## CC1(C)CCC[C@]2(C)[C@H]3CCO[C@]3(C)CC[C@@H]12 [AMBROXIDE]
[1]; Table 1, components of MARINA
  Bp. [° C.]: 283 °C

## C=CCCC(=O)C(=C)C1CCCCC1 [PHARAONE 10% DPG]
[1]; [2]
  Bp. [° C.]: 0 °C

## CCCCCC1C(=O)CCC1CC(=O)OC (centres unmarked) [HEDION]
[1]; Table 2, components of PEACH
  Bp. [° C.]: 296 °C
[1]; [2]
  Bp. [° C.]: 296 °C

## C=CCOC(=O)CCC1CCCCC1 [ALLYLCYCLOHEXYLPROPIONAT]
[1]; list of selected fragrances
  Bp. [° C.]: 250 °C

## CCOC(=O)C(C)CC (centres unmarked) [ETHYLMETHYLBUTYRAT-2]
[1]; Table 1, components of MARINA
  Bp. [° C.]: 135 °C
[1]; Table 2, components of PEACH
  Bp. [° C.]: 135 °C

## BORNEOL L/ISOBORNEOL 65/35
[1]; [2]
  Bp. [° C.]: 212 °C

## CC(=O)OC1CC(C)CCC1C(C)C (centres unmarked) [MENTHYL ACETATE]
[1]; list of selected fragrances
  Bp. [° C.]: 255 °C

## CC12CCC(C1)C(C)(C)C2O (centres unmarked) [FENCHOL]
[1]; Table 1, components of MARINA
  Bp. [° C.]: 212 °C

## CCC/C=C/CO [HEXENOL TRANS-2]
[1]; Table 2, components of PEACH
  Bp. [° C.]: 159 °C

## CCCCCC1C(=O)CCC1CC(=O)OC (centres unmarked) [METHYLDIHYDROJASMONATE]
[1]; list of selected fragrances
  Bp. [° C.]: 296 °C

## CCC(C)(O)CCCC(C)C (centres unmarked) [TETRAHYDROLINALOOL]
[1]; Table 1, components of MARINA
  Bp. [° C.]: 197 °C
[1]; [2]
  Bp. [° C.]: 197 °C

## CC1=CC(C)C(C=O)CC1 (centres unmarked) [VERTOCITRAL]
[1]; Table 1, components of MARINA
  Bp. [° C.]: 187 °C

## CCCCCCC1OC(=O)CC1C (centres unmarked) [3-METHYL-GAMMA-DECALACTONE]
[1]; list of selected fragrances
  Bp. [° C.]: 293 °C

## C=CC(C)(O)CCC=C(C)CC (mixture of isomers) [ETHYLLINALOOL]
[1]; Table 1, components of MARINA
  Bp. [° C.]: 224 °C

## CC1(C)[C@@H]2CC[C@@]1(C)[C@H](O)C2 (racemic) [ISOBORNEOL]
[1]; Table 1, components of MARINA
  Bp. [° C.]: 211 °C
